Measurements from patent publication US20230158151A1 (NURIX THERAPEUTICS, INC., priority 2021, published 2023).

Target: T1, ITK (Mus musculus, UniProt Q03526)
T1 construct: administered to mice orally; from tissue; host or cells: mouse splenocytes (spleen) after oral dosing
T1 sequence (Q03526 1-625): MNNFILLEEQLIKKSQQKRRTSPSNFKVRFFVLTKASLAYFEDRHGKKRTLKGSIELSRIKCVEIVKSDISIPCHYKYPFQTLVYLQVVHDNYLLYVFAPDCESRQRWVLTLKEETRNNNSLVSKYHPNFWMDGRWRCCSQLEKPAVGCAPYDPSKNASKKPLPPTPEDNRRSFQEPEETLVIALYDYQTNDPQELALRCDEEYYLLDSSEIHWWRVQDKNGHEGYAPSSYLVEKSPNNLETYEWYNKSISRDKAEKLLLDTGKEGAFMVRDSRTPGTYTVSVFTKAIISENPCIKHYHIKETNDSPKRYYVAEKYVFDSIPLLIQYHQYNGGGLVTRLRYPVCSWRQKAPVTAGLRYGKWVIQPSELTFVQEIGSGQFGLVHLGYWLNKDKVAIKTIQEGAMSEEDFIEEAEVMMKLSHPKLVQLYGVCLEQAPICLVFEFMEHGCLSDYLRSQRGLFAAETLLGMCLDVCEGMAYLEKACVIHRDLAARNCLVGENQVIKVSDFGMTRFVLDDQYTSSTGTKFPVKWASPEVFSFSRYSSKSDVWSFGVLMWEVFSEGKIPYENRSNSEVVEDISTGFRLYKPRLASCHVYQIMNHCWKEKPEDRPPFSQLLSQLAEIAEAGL
Assay: Western Assay for ITK Degradation in Mouse Splenocytes after oral administration
Format: in vivo
Settings: % ITK remaining in mouse splenocytes
Procedure: Compounds 30 and 31 were administered to mice orally. After 6 hours, splenocytes cells were harvested. ITK was evaluated by Western blotting. Media was removed and cell pellets were lysed in 100 μL lysis buffer (RIPA buffer (Fisher, PI89901), cOmplete Mini EDTA-free protease inhibitor (Sigma 11836170001), Protease Inhibitor Cocktail (Sigma, P2714), Phosphatase Inhibitor Cocktail 2 and 3 (Sigma, P5726 and P0044), Benzonase (Sigma, E1014)). Cells were lysed overnight at −20° C. Following thaw, cells were centrifuged for 10 min at 13000 rpm, then transferred to new tube. Protein levels were determined by BCA Assay performed according to manufacturer's protocol (EMD Millipore, cat. no. 71285-3). Samples were combined with (4×) LDS Sample Buffer and (10×) Reducing Agent and H2O to equally load 20 μg protein per lane of a 26-well NuPAGE 4-12% Bis-Tris protein gel (1.0 mm, Thermo cat. no. NP0326). Samples were separated by running gels at constant 150 V in NuPAGE MES SDS Running Buffer. Following electrophoresis, proteins were transferred to nitrocellulose membranes using an iBlot Gel Transfer Device and iBlot Gel Transfer Stacks (Thermo cat. no. IB21001 and IB301001) and transfer method P3 (20V for 7 min). Membranes were blocked for 1 hr in 5% milk solution (TBS (0.2% Tween-20)). Following blocking, membranes were incubated with primary antibody (1:1000 CST ITK (2F12) #2380) overnight at 4° C. with gentle shaking. Blots were washed 2× in TBS (0.2% Tween-20), 30 min per wash. Following washes, blots were incubated in secondary HRP-conjugated antibody (Promega anti-Mouse IgG (H+L) HRP cat. no. W4021), 1:5000 in 5% milk solution (TBS (0.2% Tween-20)), for 1 hr at room temperature with gentle shaking. Blots were washed 2× in TBS (0.2% Tween-20), 30 min per wash. Blots were incubated with 1:1 mix of ECL reagents 1 & 2 (Amersham ECL Western Blotting Detection Reagent, cat. no. RPN2106) for 2 min at room temperature. Bands were visualized using a Protein Simple imager. Blots were then re-probed with a combination of anti-actin antibody (Sigma Monoclonal Mouse Anti-β-Actin (clone AC-15), cat. no. A5441) and secondary HRP-conjugated antibody (Promega anti-Mouse IgG (H+L) HRP, cat. no. W4021) and similar steps were taken for incubation, wash, detection and visualization steps as above. The data was analyzed using Alpha View software. The densitometric reading for each sample band was normalized to that of the corresponding actin band per lane. Approximate % ITK remaining per sample was calculated as follows: […]
Once % ITK remaining has been calculated for each sample, groups are averaged together to show an means % ITK normalized to actin and relative to control.
Compounds 30 and 29 were administered to mice orally. After 6 hours or 24 hours, splenocytes cells were harvested. ITK was evaluated by Western blotting. Plasma concentrations were determined by LC/MS/MS. Plasma samples were protein precipitated by addition of 100 μl of acetonitrile containing 50 ng/ml of internal standard. The resulting mixture was vortexed and centrifuged at 4000 RPM for 5 minutes. An aliquot of the resultant supernatant (75 μl) was added to 75 μl of 0.1% formic acid in water to constitute the final sample for injection. Samples were injected on a Shimadzu Exion LC Binary Gradient AD Pump HLPC system connected to a Sciex QTRAP 6500+ mass spectrometer. Five μl of sample was injected onto a Waters Acquity UPLC BEH C18 column 130A (2.1×30 mm, […]) at 40° C. utilizing a flow rate of 700 μl/minute. Mobile Phase A was 0.1% formic acid in water and mobile phase B was 0.1% formic acid in acetonitrile. A linear gradient of 15-95% B over 1.0 minute was used. The mass spectrometer was operated in positive ion electrospray mode with multiple reaction monitoring for maximum sensitivity. Sciex Analyst software (version 1.6.3) was used for LC/MS/MS instrument control and acquisition. […]

SMILES | ITK (%) 90 mpk PO, 6 h (90 mpk PO, 6 h) | ITK (%) 90 mpk PO, 24 h (90 mpk PO, 24 h) | ITK (%) 60 mpk PO, 24 h (60 mpk PO, 24 h)
CC1(C)CCc2c(-c3cc4ccc(C(=O)N5CCN(CC6CCN(c7ccc(C8CCC(=O)NC8=O)cc7)CC6)CC5)cc4[nH]3)n[nH]c2C1 (stereo not drawn) [Compound 38, 3-(4-(4-((4-(2-(6,6-dimethyl-4,5,6,7-tetrahydro-1H-indazol-3-yl)-1H-indole-6-carbonyl)piperazin-1-yl)methyl)piperidin-1-yl)phenyl)piperidine-2,6-dione] | 14% | 14% | 
CC1(C)CCc2c(-c3cc4ccc(C(=O)N5CCC(CN6CCC(c7ccc(C8CCC(=O)NC8=O)cc7)CC6)CC5)cc4[nH]3)n[nH]c2C1 (stereo not drawn) [Compound 39, 3-(4-(1-((1-(2-(6,6-dimethyl-4,5,6,7-tetrahydro-1H-indazol-3-yl)-1H-indole-6-carbonyl)piperidin-4-yl)methyl)piperidin-4-yl)phenyl)piperidine-2,6-dione] |  |  | 93%
